What was measured:
Carbonic anhydrase 1 = Carbonic anhydrase 1 (Homo sapiens, UniProt P00915); experiment: Binding affinity to recombinant human CA1 by DSF-based fluorescence thermal shift assay
Carbonic anhydrase 2 = Carbonic anhydrase 2 (Homo sapiens, UniProt P00918); experiment: Binding affinity to recombinant human CA2 by DSF-based fluorescence thermal shift assay
Carbonic anhydrase 3 = Carbonic anhydrase 3 (Homo sapiens, UniProt P07451); experiment: Binding affinity to recombinant N-terminal His6x-tagged human CA3 (4 to 260 residues) expressed in Escherichia coli BL21(DE3) by DSF-based fluorescence thermal shift assay
Sequence of Carbonic anhydrase 3 (P07451 whole entry, the tested form may be a part): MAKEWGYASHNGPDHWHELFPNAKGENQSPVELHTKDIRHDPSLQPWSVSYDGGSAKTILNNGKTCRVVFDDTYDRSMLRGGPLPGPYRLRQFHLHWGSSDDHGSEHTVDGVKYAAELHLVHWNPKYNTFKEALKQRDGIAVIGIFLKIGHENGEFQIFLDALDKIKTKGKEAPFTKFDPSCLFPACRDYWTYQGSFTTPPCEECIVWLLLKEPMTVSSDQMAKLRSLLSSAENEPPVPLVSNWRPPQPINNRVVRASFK

Carbonic anhydrase 4 = Carbonic anhydrase 4 (Homo sapiens, UniProt P22748); experiment: Binding affinity to recombinant human CA4 by DSF-based fluorescence thermal shift assay
Sequence of Carbonic anhydrase 4 (P22748 whole entry): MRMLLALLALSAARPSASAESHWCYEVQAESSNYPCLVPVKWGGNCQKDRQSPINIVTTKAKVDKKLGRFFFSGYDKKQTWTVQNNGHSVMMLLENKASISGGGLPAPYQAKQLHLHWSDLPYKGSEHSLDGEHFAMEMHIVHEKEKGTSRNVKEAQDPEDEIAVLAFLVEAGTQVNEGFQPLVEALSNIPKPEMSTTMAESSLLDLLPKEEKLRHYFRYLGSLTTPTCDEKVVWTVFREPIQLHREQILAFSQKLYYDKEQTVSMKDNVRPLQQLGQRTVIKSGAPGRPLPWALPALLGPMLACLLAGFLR

[1] = biological target: Carbonic anhydrase 5B, mitochondrial (Homo sapiens, UniProt Q9Y2D0); experiment: Binding affinity to recombinant full length N-terminal His6x-tagged human CA5B expressed in Escherichia coli Rosetta 2 (DE3) by DSF-based fluorescence thermal shift assay
Sequence of Carbonic anhydrase 5B, mitochondrial (Q9Y2D0 whole entry): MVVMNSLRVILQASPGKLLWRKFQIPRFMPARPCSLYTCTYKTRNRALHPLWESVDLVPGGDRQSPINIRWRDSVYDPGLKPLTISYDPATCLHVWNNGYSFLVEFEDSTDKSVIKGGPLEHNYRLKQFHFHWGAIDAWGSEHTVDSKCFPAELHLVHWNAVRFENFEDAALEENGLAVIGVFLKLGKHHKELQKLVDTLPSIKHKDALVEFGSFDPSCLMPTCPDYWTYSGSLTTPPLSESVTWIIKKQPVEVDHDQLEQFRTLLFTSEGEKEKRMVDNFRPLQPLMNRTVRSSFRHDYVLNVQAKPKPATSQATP

Carbonic anhydrase 6 = Carbonic anhydrase 6 (Homo sapiens, UniProt P23280); experiment: Binding affinity to recombinant human CA6 by DSF-based fluorescence thermal shift assay
Sequence of Carbonic anhydrase 6 (P23280 whole entry): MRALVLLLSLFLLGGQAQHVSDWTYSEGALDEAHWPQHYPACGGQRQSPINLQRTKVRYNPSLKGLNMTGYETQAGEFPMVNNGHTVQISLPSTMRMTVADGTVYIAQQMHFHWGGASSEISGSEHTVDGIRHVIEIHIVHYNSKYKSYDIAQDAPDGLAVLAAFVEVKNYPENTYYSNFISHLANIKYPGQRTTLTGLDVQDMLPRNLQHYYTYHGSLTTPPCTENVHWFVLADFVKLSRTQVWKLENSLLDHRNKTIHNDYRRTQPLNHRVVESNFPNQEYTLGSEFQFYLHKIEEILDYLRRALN

Carbonic anhydrase 7 = Carbonic anhydrase 7 (Homo sapiens, UniProt P43166); experiment: Binding affinity to recombinant human CA7 by DSF-based fluorescence thermal shift assay
Sequence of Carbonic anhydrase 7 (P43166 whole entry): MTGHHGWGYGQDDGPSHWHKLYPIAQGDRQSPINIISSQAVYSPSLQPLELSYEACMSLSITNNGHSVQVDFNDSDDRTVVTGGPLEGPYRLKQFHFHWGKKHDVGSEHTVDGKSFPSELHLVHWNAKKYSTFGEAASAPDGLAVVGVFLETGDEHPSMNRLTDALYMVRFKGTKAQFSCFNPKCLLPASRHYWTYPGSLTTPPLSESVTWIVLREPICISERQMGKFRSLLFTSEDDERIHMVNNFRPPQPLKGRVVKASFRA

Carbonic anhydrase 9 = Carbonic anhydrase 9 (Homo sapiens, UniProt Q16790); experiment: Binding affinity to recombinant human CA9 by DSF-based fluorescence thermal shift assay
Carbonic anhydrase 12 = Carbonic anhydrase 12 (Homo sapiens, UniProt O43570); experiment: Binding affinity to recombinant human CA12 by DSF-based fluorescence thermal shift assay
Sequence of Carbonic anhydrase 12 (O43570 whole entry): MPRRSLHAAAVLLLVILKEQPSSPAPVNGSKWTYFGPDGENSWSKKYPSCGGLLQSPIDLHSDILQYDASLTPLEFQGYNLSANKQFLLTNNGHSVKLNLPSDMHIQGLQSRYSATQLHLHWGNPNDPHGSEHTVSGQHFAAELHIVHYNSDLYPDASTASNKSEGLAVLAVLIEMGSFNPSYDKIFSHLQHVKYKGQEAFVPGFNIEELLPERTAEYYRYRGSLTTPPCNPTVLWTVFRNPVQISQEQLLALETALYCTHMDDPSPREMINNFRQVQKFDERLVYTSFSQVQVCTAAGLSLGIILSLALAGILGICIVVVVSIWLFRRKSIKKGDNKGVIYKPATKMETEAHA

Carbonic anhydrase 13 = Carbonic anhydrase 13 (Homo sapiens, UniProt Q8N1Q1); experiment: Binding affinity to recombinant human CA13 by DSF-based fluorescence thermal shift assay
Sequence of Carbonic anhydrase 13 (Q8N1Q1 whole entry): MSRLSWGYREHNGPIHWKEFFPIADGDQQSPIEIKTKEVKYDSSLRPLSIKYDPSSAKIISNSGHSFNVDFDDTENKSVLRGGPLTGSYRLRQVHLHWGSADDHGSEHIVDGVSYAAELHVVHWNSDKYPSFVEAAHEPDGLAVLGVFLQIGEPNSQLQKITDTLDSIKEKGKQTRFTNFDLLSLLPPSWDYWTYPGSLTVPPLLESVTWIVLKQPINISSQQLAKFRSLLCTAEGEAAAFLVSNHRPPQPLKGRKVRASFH

Sequence of Carbonic anhydrase 1 (P00915 whole entry): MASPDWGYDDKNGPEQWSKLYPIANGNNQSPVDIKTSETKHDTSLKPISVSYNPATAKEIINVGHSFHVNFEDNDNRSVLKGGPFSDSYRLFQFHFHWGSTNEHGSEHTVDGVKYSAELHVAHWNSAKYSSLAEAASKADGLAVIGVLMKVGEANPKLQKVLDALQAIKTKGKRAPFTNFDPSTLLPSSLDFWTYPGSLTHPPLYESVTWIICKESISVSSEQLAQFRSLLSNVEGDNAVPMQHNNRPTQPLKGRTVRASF

Kd (Carbonic anhydrase 1) [µM]	Kd (Carbonic anhydrase 2) [µM]	Kd (Carbonic anhydrase 3) [µM]	Kd (Carbonic anhydrase 4) [µM]	Kd [1] [µM]	Kd (Carbonic anhydrase 6) [µM]	Kd (Carbonic anhydrase 7) [µM]	Kd (Carbonic anhydrase 9) [µM]	Kd (Carbonic anhydrase 12) [µM]	Kd (Carbonic anhydrase 13) [µM]	Compound
0.26	0.088	≥ 200	0.85	0.55	3.6	0.11	0.053	5.6	0.66	NS(=O)(=O)c1ccc(NC(=O)C2CC(=O)N(c3ccccc3)C2)cc1 (stereo not given)
≥ 200	≥ 200	≥ 200	≥ 200	≥ 200	≥ 200	≥ 200	≥ 200	≥ 200	≥ 200	Cc1c(Br)c(N2CC(C(=O)NN)CC2=O)c(Br)c(C)c1S(N)(=O)=O (stereo not given)
≥ 200	≥ 200	≥ 200	≥ 200	≥ 200	≥ 200	≥ 200	≥ 200	≥ 200	≥ 200	Cc1c(Br)c(N2CC(C(=O)O)CC2=O)c(Br)c(C)c1S(N)(=O)=O (stereo not given)
2	2	≥ 200	2.2	0.67	14	18	2	18	21	COc1ccc(/C=N/NC(=O)C2CC(=O)N(c3cc(C)c(S(N)(=O)=O)c(C)c3)C2)cc1 (stereo not given)
0.67	0.1	≥ 200	0.51	0.0038	0.65	0.035	0.091	2	0.2	Cc1cc(N2CC(C(=O)N/N=C/c3ccc(Cl)cc3)CC2=O)c(Cl)c(C)c1S(N)(=O)=O (stereo not given)
1.7	2	≥ 200	18	0.67	14	≥ 200	3.3	≥ 200	≥ 200	Cc1cc(N2CC(C(=O)N/N=C/c3ccc(Cl)cc3)CC2=O)cc(C)c1S(N)(=O)=O (stereo not given)
≥ 200	≥ 200	≥ 200	≥ 200	≥ 200	≥ 200	≥ 200	≥ 200	≥ 200	≥ 200	Cc1cc(N2CC(C(=O)O)CC2=O)cc(C)c1S(=O)(=O)Cl (stereo not given)
1.1	0.02	–	–	0.1	3.3	0.025	0.1	2	0.01	Cc1cc(C)n(NC(=O)C2CC(=O)N(c3cc(C)c(S(N)(=O)=O)c(C)c3Cl)C2)n1 (stereo not given)
10	7.7	≥ 200	6.9	2	50	20	3.3	≥ 200	≥ 200	Cc1cc(N2CC(c3n[nH]c(=S)o3)CC2=O)cc(C)c1S(N)(=O)=O (stereo not given)
0.31	0.19	≥ 200	0.81	0.74	2.4	0.17	0.056	10	1.1	NS(=O)(=O)c1ccc(NC(=O)C2CC(=O)N(c3cccc(Br)c3)C2)cc1 (stereo not given)
1.5	2	≥ 200	6.7	≥ 200	50	3.4	3	–	2	COC(=O)C1CC(=O)N(c2cc(C)c(S(N)(=O)=O)c(C)c2)C1 (stereo not given)
≥ 200	≥ 200	≥ 200	≥ 200	≥ 200	≥ 200	≥ 200	≥ 200	≥ 200	≥ 200	Cc1c(Br)c(N2CC(C(=O)N/N=C/c3ccccc3)CC2=O)c(Br)c(C)c1S(N)(=O)=O (stereo not given)
≥ 200	≥ 200	≥ 200	≥ 200	≥ 200	≥ 200	–	≥ 200	≥ 200	≥ 200	Cc1cc(C)cc(NC(=O)C2CC(=O)N(c3ccccc3)C2)c1 (stereo not given)
2.9	2	≥ 200	2	0.5	29	33	2	67	8.3	Cc1cc(C)n(NC(=O)C2CC(=O)N(c3cc(C)c(S(N)(=O)=O)c(C)c3)C2)n1 (stereo not given)
100	100	–	≥ 200	≥ 200	≥ 200	≥ 200	–	50	33	Cc1cc(NCC(CC(=O)O)c2n[nH]c(=S)n2-c2ccccc2)cc(C)c1S(N)(=O)=O (stereo not given)
≥ 200	≥ 200	–	–	–	–	–	–	≥ 200	≥ 200	Cc1c(Br)c(N2CC(C(=O)N/N=C/c3ccc([N+](=O)[O-])cc3)CC2=O)c(Br)c(C)c1S(N)(=O)=O (stereo not given)
0.25	0.025	≥ 200	–	0.013	3.3	0.02	0.14	1	–	Cc1cc(C)n(C(=O)C2CC(=O)N(c3cc(C)c(S(N)(=O)=O)c(C)c3Cl)C2)n1 (stereo not given)
0.71	0.056	≥ 200	0.18	0.0032	0.59	0.016	0.077	–	0.05	COc1ccc(/C=N/NC(=O)C2CC(=O)N(c3cc(C)c(S(N)(=O)=O)c(C)c3Cl)C2)cc1 (stereo not given)
≥ 200	≥ 200	≥ 200	≥ 200	≥ 200	≥ 200	≥ 200	≥ 200	≥ 200	≥ 200	COC(=O)C1CC(=O)N(c2c(Br)c(C)c(S(N)(=O)=O)c(C)c2Br)C1 (stereo not given)
40	17	–	10	10	10	7.7	1	2.5	1.4	Cc1cc(NCC(CC(=O)O)c2n[nH]c(=S)n2-c2ccccc2)c(Cl)c(C)c1S(N)(=O)=O (stereo not given)
3.3	0.64	≥ 200	5.6	3.8	17	1.5	0.43	39	3.1	NS(=O)(=O)c1ccc(NC(=O)C2CC(=O)N(c3ccc(Br)cc3)C2)cc1 (stereo not given)
13	7.1	≥ 200	9.1	7.7	83	33	4	22	6.7	Cc1cc(N2CC(C(=O)NN3CC(C(=O)O)CC3=O)CC2=O)cc(C)c1S(N)(=O)=O (stereo not given)
≥ 200	≥ 200	≥ 200	≥ 200	≥ 200	≥ 200	≥ 200	≥ 200	≥ 200	≥ 200	Cc1cc(C)cc(N2CC(C(=O)O)CC2=O)c1 (stereo not given)
2.5	2.9	≥ 200	20	0.63	18	37	2.5	33	33	Cc1cc(N2CC(C(=O)N/N=C/c3ccc(Br)cc3)CC2=O)cc(C)c1S(N)(=O)=O (stereo not given)
0.36	0.032	–	–	0.2	2.2	0.1	0.1	0.36	0.014	Cc1cc(N2CC(C(=O)NNC(=S)Nc3ccccc3)CC2=O)c(Cl)c(C)c1S(N)(=O)=O (stereo not given)
0.33	0.05	≥ 200	0.48	0.018	0.81	0.043	0.1	1.4	0.056	Cc1cc(N2CC(C(=O)N/N=C/c3ccc([N+](=O)[O-])cc3)CC2=O)c(Cl)c(C)c1S(N)(=O)=O (stereo not given)
1.6	–	≥ 200	6.8	–	45	8.3	–	≥ 200	3.9	Cc1cc(NC(=O)C2CC(=O)N(c3ccccc3)C2)cc(C)c1S(N)(=O)=O (stereo not given)
0.44	0.033	≥ 200	–	0.04	3.1	0.0087	0.089	0.5	0.017	Cc1cc(N2CC(c3n[nH]c(=S)n3-c3ccccc3)CC2=O)c(Cl)c(C)c1S(N)(=O)=O (stereo not given)
0.67	0.029	≥ 200	1	0.025	4.8	0.013	0.1	–	0.014	COC(=O)C1CC(=O)N(c2cc(C)c(S(N)(=O)=O)c(C)c2Cl)C1 (stereo not given)
0.83	0.1	≥ 200	–	0.25	3.3	0.13	0.067	–	0.1	Cc1cc(N2CC(c3n[nH]c(=S)o3)CC2=O)c(Cl)c(C)c1S(N)(=O)=O (stereo not given)
